{
  "source": "patent US7015249B1",
  "about": "“Methods and compositions for treating diabetes” (Purdue Research Foundation, priority 1997, dated 2006)",
  "key": {"ACO and mAP2 mRNA": {"test_system": "ACO and mAP2 mRNA", "experiment": "Tissue-specific gene expression (ACO, mAP2) by RT-PCR in rats fed experimental diets", "assay_type": "in vivo, rat", "settings": "diet 14 days, 1.5% CLA or 0.2% troglitazone, vs control diet", "procedure": "Male Zucker fatty (fa/fa) rats and lean littermates (wt) were obtained at six weeks of age from Genetic Models, Inc. (Indianapolis, Ind.). Because the primary aim of the study was to determine the ability of CLA to improve insulin action and prevent the onset of diabetes, all rats were determined normoglycemic prior to assignment to experimental treatments. (The diets are discussed in the subsequent section). After maintaining rats on experimental diets for 14 days, rats were euthanized by CO2 and cervical dislocation and tissues collected, weighed and frozen. RT-PCR was performed as described above. The genes utilized as markers of tissue and subtype specific PPAR activation included Acyl-CoA Oxidase (ACO; found in the liver and induced by PPARα activation), Adipocyte Specific Protein (mAP2; found in adipose tissue and induced by activation of PPARγ) and ACO in the muscle (induced by PPARβ). […] Body weights were measured twice weekly and average food consumption estimated by measuring differences in weight of freshly supplied diet and diet remaining in feeders two days later. […]"}, "Zucker rats": {"test_system": "Zucker rats", "experiment": "Plasma insulin, triglyceride and free fatty acid concentrations in Zucker rats", "assay_type": "in vivo, rat", "settings": "fed, diets 14 days", "text": "Diet components were obtained from Dyets, Inc. (Bethlehem, Pa.) and the CLA isomeric mixture (90% pure mixture) from PharmaNutrients, Chicago, Ill. The CLA mixture had the following isomeric distribution: 42% of a composition including cis,trans-9,11 and trans,cis-9,11-octadecadienoic acid; 43.5% trans,cis-10,12-octadecadienoic acid; 1% cis,cis-9,11-octadecadienoic acid; 1% cis,cis-10,12-octadecadienoic acid; and 1.5% of a composition including trans,trans-9,11-octadecadienoic acid and trans,trans-10,12-octadecadienoic acid, all on a weight percent basis. The CLA mixture also included, on a weight percent basis, about 0.5% linoleate, about 5.5% oleate and about 5% other lipids as discussed above. The thiazolidinedione, TZD (Rezulin™, Parke-Davis, Ann Arbor, MI), was used as a positive control for anti-diabetic activity in these studies. Male Zucker fatty (fa/fa) rats and lean littermates (wt) were obtained at six weeks of age from Genetic Models, Inc. (Indianapolis, Ind.). Because the primary aim of the study was to determine the ability of CLA to improve insulin action and prevent the onset of diabetes, all rats were determined normoglycemic prior to assignment to experimental treatments. After maintaining rats on experimental diets for 14 days, rats were euthanized by CO2 and cervical dislocation and blood collected and immediately analyzed for post-prandial glucose concentrations (see below) or placed into heparinized test tubes for plasma analyses as described below. Epididymal fat pads and livers were harvested and weighed. An aliquot of the epididymal fat pad was isolated into buffered saline for glucose transport analyses and the remaining epididymal fat pad and gastrocnemius muscle were isolated, immediately frozen in liquid nitrogen and stored at −80° C. until mRNA and protein analyses were performed. Three isocaloric, experimental diets were formulated according to a modified AIN-76 mixture containing 6.5% (by weight) fat (diet described in American Institute of Nutrition: Report of the American Institute of Nutrition Ad Hoc Committee on Standards for Nutritional Studies, J. Nutr. 107 1340–1348 (1977) but includes 6.5% by weight fat instead of 5% by weight fat). […] Body weights were measured twice weekly and average food consumption estimated by measuring differences in weight of freshly supplied diet and diet remaining in feeders two days later. […] Blood glucose levels were determined using a One Touch glucose meter (Lifescan, Inc.). Plasma insulin levels were determined using commercially available radioimmunoassay kits (Linco Research, St. Charles, Mo.). Plasma nonesterified fatty acids were quantified using a calorimetric kit (Wako). Plasma triglyceride concentrations were determined using a commercially available kit (Sigma Diagnostics, St. Louis, Mo.)."}},
  "note": "Marks after values point to notes of the source that are not given here.",
  "data": [
    {"smiles": "Cc1c(C)c2c(c(C)c1O)CCC(C)(COc1ccc(CC3SC(=O)NC3=O)cc1)O2", "note": "(centres unmarked) [Troglitazone]", "values": [
      {"measurement": "ACO mRNA expression in tissue with predominantly PPARβ (muscle)", "setting": "ACO and mAP2 mRNA", "value": "no effect"},
      {"measurement": "Free Fatty Acids + S.D.", "setting": "Zucker rats; fa/fa rats", "value": "0.778 + 0.378^c mMol"},
      {"measurement": "Plasma Triglycerides ± S.D.", "setting": "Zucker rats; fa/fa rats", "value": "57.08 ± 12.3^c mg/dl"},
      {"measurement": "Free Fatty Acids + S.D.", "setting": "Zucker rats; wt (lean) rats", "value": "1.139 + 0.277^c mMol"},
      {"measurement": "Plasma Triglycerides ± S.D.", "setting": "Zucker rats; wt (lean) rats", "value": "61.1 ± 12.1^c mg/dl"}
    ]}
  ]
}
